Reference: patent US12447147B2, “Methods of treating, ameliorating, and/or preventing cancer using pyrvinium compositions” (Thomas Jefferson University, priority 2019, dated 2025)
Read-outs that look alike come from different tables or passages of the source.

How the values were obtained:
PDA = experiment: Tumor volume, PARP inhibitor with or without shHuR; type: in vivo
Text: HuR (ELAVL1) is an RNA binding protein that, upon exposure to a variety of intrinsic cancer related stressors, binds to a network of pro-survival mRNAs leading to an increase in their stability and translation. […] HuR CRISPR knockout PDA cell lines have a xenograft lethal phenotype. […] HuR is also important for oxaliplatin resistance in PDA. Utilizing a tumor microarray (TMA) from resected patient samples of PDA, it was discovered that 79% (n=80) of patients were positive for cytoplasmic HuR, with little to no cytoplasmic localization detected in adjacent normal tissues. HuR is a driver of chemoresistance in PDA and thus a prime target for re-sensitizing PDA cells to current therapies. While several compounds have been investigated as HuR inhibitors, to date there are no clinically viable HuR inhibitors.

COX2 DNA binding to HuR = COX2 DNA binding to HuR (Homo sapiens, UniProt Q15717); experiment: Inhibition of COX2 DNA binding to HuR; conditions: for Max % I, n1: replicate n1; for Max % I, n2: replicate n2; for Mean Max % I: mean of n1 and n2
[1] = target: HuR binding to target mRNA VEGF (Homo sapiens, UniProt Q15717); experiment: Inhibition of HuR binding to target mRNA VEGF; conditions: given as a range
VEGF DNA binding to HuR = VEGF DNA binding to HuR (Homo sapiens, UniProt Q15717); experiment: Inhibition of VEGF DNA binding to HuR; conditions: for Mean Max % I: mean of n1 and n2; for Max % I, n1: replicate n1; for Max % I, n2: replicate n2
[2] = target: HuR binding to target mRNA COX2 (Homo sapiens, UniProt Q15717); experiment: Inhibition of HuR binding to target mRNA COX2; conditions: given as a range
KTC Organoids = experiment: 5 day viability assay (Pico Green), KTC organoids; type: cell-based; conditions: Mus musculus, 120 h
Text: (§1) KPC mice have both an activating KRAS mutation (KRAS is mutated in up to 90% of PDA) and a loss of P53 driven by a pancreas specific Cre promoter. The KTC organoid model is derived from a GEMM that has a driver KRAS mutation and greater than 2-fold overexpression of HuR, specifically in the pancreas.

[3] = In vivo models, pyrvinium pamoate and ademaciclib (FIGS. 14A-14C)
HS766T = experiment: 5 day viability assay (Pico Green), HS766T; type: cell-based; conditions: 120 h
Method: (§2) The efficacy of pyrvinium pamoate was determined in a panel of PDA cell lines.

MIA-PaCa2 cells = experiment: MIA-PaCa2 flank tumor growth in mice; type: in vivo, nude mice; conditions: for tumor growth: 1 mg/kg IP 3 times weekly vs vehicle, MIA-PaCa2 flank tumors started at 100 mm^3
Text: as §1

CFPAC = experiment: 5 day viability assay (Pico Green), CFPAC; type: cell-based; conditions: 120 h
Method: as §2

[4] = Synergy with CDK4/6 inhibitors (FIGS. 13A-13F)
[5] = oral tablets or suspensions; urine up to 96 hours after each dose; cited from earlier work
cyclin Dl = experiment: Cyclin D1 knockdown (FIG. 12)
PDX-X139 = experiment: 5 day viability assay (Pico Green), PDX cell line; type: cell-based; conditions: 120 h
Text: as §1

MIA-PaCa2 = experiment: 5 day viability assay (Pico Green), MIA-PaCa2; type: cell-based; conditions: Homo sapiens, MIA PaCa-2, 120 h
Method: as §2

Panc-1 = experiment: 5 day viability assay (Pico Green), Panc-1; type: cell-based; conditions: Homo sapiens, 120 h
Method: as §2

[6] = mean of n1 and n2, read-out: Mean IC50
[7] = replicate n1, read-out: IC50, n1
[8] = replicate n2, read-out: IC50, n2

Sequence of VEGF DNA binding to HuR (Q15717 whole entry): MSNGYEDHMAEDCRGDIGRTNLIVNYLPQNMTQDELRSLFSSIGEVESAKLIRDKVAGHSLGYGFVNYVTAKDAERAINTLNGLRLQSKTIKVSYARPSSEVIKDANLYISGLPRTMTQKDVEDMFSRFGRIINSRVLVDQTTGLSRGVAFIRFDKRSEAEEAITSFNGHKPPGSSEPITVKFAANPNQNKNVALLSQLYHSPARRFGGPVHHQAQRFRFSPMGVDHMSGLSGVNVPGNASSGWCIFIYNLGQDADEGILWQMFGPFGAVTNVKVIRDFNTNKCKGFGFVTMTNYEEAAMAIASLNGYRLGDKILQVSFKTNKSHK
Sequence of COX2 DNA binding to HuR (Q15717 whole entry): as above
Sequence of HuR binding to target mRNA COX2 (Q15717 whole entry): as above
Sequence of HuR binding to target mRNA VEGF (Q15717 whole entry): as above

## O=C(c1cc(Cc2n[nH]c(=O)c3ccccc23)ccc1F)N1CCN(C(=O)C2CC2)CC1 [olaparib]
PDA; combined with shHuR (DOX-inducible)
  reduction in tumor volume: 9.3 fold
PDA; olaparib alone
  reduction in tumor volume: 5.6 fold

## O=C1[O][Pt]2([NH][C@@H]3CCCC[C@H]3[NH]2)[O]C1=O [Oxaliplatin]
COX2 DNA binding to HuR; [6]
  IC50: > 20000 nM
COX2 DNA binding to HuR
  Max % I, n1: 100.0%
  Max % I, n2: 100.0%
COX2 DNA binding to HuR; [7]
  IC50: > 20000 nM
COX2 DNA binding to HuR; [8]
  IC50: > 20000 nM
[1]
  IC50: > 20000 nM
VEGF DNA binding to HuR; [6]
  IC50: > 20000 nM
VEGF DNA binding to HuR; [7]
  IC50: > 20000 nM
VEGF DNA binding to HuR; [8]
  IC50: > 20000 nM
[2]
  IC50: > 20000 nM

## Cc1occ2c1C(=O)c1c(O)ccc(O)c1C2 [MS444]
COX2 DNA binding to HuR
  Mean Max % I: 100.0%
  Max % I, n1: 100.0%
  Max % I, n2: 100.0%
COX2 DNA binding to HuR; [6]
  IC50: 33 nM
COX2 DNA binding to HuR; [7]
  IC50: 33 nM
COX2 DNA binding to HuR; [8]
  IC50: 32 nM
VEGF DNA binding to HuR
  Mean Max % I: 99.8%
  Max % I, n1: 100.0%
  Max % I, n2: 99.5%
VEGF DNA binding to HuR; [6]
  IC50: 16 nM
VEGF DNA binding to HuR; [7]
  IC50: 15 nM
VEGF DNA binding to HuR; [8]
  IC50: 17 nM

## Verteporfin
COX2 DNA binding to HuR
  Mean Max % I: 92.7%
  Max % I, n1: 92.9%
  Max % I, n2: 92.4%
COX2 DNA binding to HuR; [6]
  IC50: 29 nM
COX2 DNA binding to HuR; [7]
  IC50: 28 nM
COX2 DNA binding to HuR; [8]
  IC50: 30 nM
VEGF DNA binding to HuR
  Mean Max % I: 74.7%
  Max % I, n1: 77.0%
  Max % I, n2: 72.4%
VEGF DNA binding to HuR; [6]
  IC50: 144 nM
VEGF DNA binding to HuR; [7]
  IC50: 167 nM
VEGF DNA binding to HuR; [8]
  IC50: 124 nM

## COc1ccc(C(CC(=O)N2CCCC2)c2c(OC)cc(OC)c3c(-c4ccccc4)cc(=O)oc23)cc1 (stereo not drawn) [CMLD2]
COX2 DNA binding to HuR
  Mean Max % I: 81.6%
  Max % I, n1: 81.1%
  Max % I, n2: 82.1%
COX2 DNA binding to HuR; [6]
  IC50: 674 nM
COX2 DNA binding to HuR; [7]
  IC50: 593 nM
COX2 DNA binding to HuR; [8]
  IC50: 767 nM
VEGF DNA binding to HuR
  Mean Max % I: 78.7%
  Max % I, n1: 85.6%
  Max % I, n2: 71.9%
VEGF DNA binding to HuR; [6]
  IC50: 1290 nM
VEGF DNA binding to HuR; [7]
  IC50: 1280 nM
VEGF DNA binding to HuR; [8]
  IC50: 1300 nM

## Cc1cc(/C=C/c2ccc3cc(N(C)C)ccc3[n+]2C)c(C)n1-c1ccccc1 [PP, pyrvinium pamoate]
KTC Organoids
  IC50: 93 nM
[3]
  efficacy in in vivo models: efficacious
COX2 DNA binding to HuR
  Mean Max % I: 89.3%
  Max % I, n1: 88.8%
  Max % I, n2: 89.8%
COX2 DNA binding to HuR; [6]
  IC50: 198 nM
COX2 DNA binding to HuR; [7]
  IC50: 340 nM
COX2 DNA binding to HuR; [8]
  IC50: 115 nM
HS766T
  IC50: 93 nM
MIA-PaCa2 cells
  tumor growth: reduced tumor growth
MIA-PaCa2 cells; listed as pyrvinium pamoate
  tumor growth: significant decrease
MIA-PaCa2 cells; 1 mg/kg IP 3 times weekly, MIA-PaCa2 tumor-bearing mice
  mouse weights: no changes
CFPAC
  IC50: 21 nM
[4]
  effect with CDK4/6 inhibitors: synergistic effect
[1]
  IC50: 203 to 416 nM
VEGF DNA binding to HuR
  Mean Max % I: 86.8%
  Max % I, n1: 87.2%
  Max % I, n2: 86.5%
VEGF DNA binding to HuR; [6]
  IC50: 149 nM
VEGF DNA binding to HuR; [7]
  IC50: 187 nM
VEGF DNA binding to HuR; [8]
  IC50: 118 nM
[5]
  urine levels of pyrvinium vs the 24 hr prior to administration: not significantly different
Cyclin Dl
  knockdown of cyclin Dl: causes a knockdown
PDX-X139
  IC50: 9 nM
MIA-PaCa2
  IC50: 40 nM
Panc-1
  IC50: 92 nM
[2]
  IC50: 207 to 453 nM

## CC(=O)O[C@H]1C(=O)[C@@]2(C)[C@H]([C@H](OC(=O)c3ccccc3)[C@]3(O)C[C@H](OC(=O)[C@H](O)[C@@H](NC(=O)c4ccccc4)c4ccccc4)C(C)=C1C3(C)C)[C@]1(OC(C)=O)CO[C@@H]1C[C@@H]2O [Paclitaxel]
COX2 DNA binding to HuR
  Mean Max % I: 83.8%
  Max % I, n2: 84.1%
COX2 DNA binding to HuR; [6]
  IC50: 2950 nM
COX2 DNA binding to HuR; [7]
  IC50: 2220 nM
COX2 DNA binding to HuR; [8]
  IC50: 3910 nM
VEGF DNA binding to HuR
  Mean Max % I: 78.3%
  Max % I, n2: 74.9%
VEGF DNA binding to HuR; [6]
  IC50: 5410 nM
VEGF DNA binding to HuR; [7]
  IC50: 5050 nM
VEGF DNA binding to HuR; [8]
  IC50: 5790 nM

## CCN1CCN(Cc2ccc(Nc3ncc(F)c(-c4cc(F)c5nc(C)n(C(C)C)c5c4)n3)nc2)CC1 [ademaciclib]
[3]
  efficacy in in vivo models: efficacious

## Dihydro-tashinone
COX2 DNA binding to HuR
  Mean Max % I: 100.0%
  Max % I, n1: 100.0%
  Max % I, n2: 100.0%
COX2 DNA binding to HuR; [6]
  IC50: 5470 nM
COX2 DNA binding to HuR; [7]
  IC50: 4080 nM
COX2 DNA binding to HuR; [8]
  IC50: 7340 nM
VEGF DNA binding to HuR
  Mean Max % I: 100.0%
  Max % I, n1: 100.0%
  Max % I, n2: 100.0%
VEGF DNA binding to HuR; [6]
  IC50: 7380 nM
VEGF DNA binding to HuR; [7]
  IC50: 6100 nM
VEGF DNA binding to HuR; [8]
  IC50: 8930 nM

## Cc1cccc2c3c(ccc12)C1=C(C(=O)C3=O)[C@@H](C)CO1 [DHTS]
COX2 DNA binding to HuR
  Mean Max % I: 94.0%
  Max % I, n1: 100.0%
  Max % I, n2: 88.1%
COX2 DNA binding to HuR; [6]
  IC50: 599 nM
COX2 DNA binding to HuR; [7]
  IC50: 1080 nM
COX2 DNA binding to HuR; [8]
  IC50: 332 nM
VEGF DNA binding to HuR
  Mean Max % I: 92.9%
  Max % I, n1: 86.5%
  Max % I, n2: 99.2%
VEGF DNA binding to HuR; [6]
  IC50: 1500 nM
VEGF DNA binding to HuR; [7]
  IC50: 1070 nM
VEGF DNA binding to HuR; [8]
  IC50: 2120 nM

## Nc1ccn([C@@H]2O[C@H](CO)[C@@H](O)C2(F)F)c(=O)n1 [Gemcitabine]
COX2 DNA binding to HuR; [6]
  IC50: > 20000 nM
COX2 DNA binding to HuR
  Max % I, n1: 100.0%
  Max % I, n2: 100.0%
COX2 DNA binding to HuR; [7]
  IC50: > 20000 nM
COX2 DNA binding to HuR; [8]
  IC50: > 20000 nM
[1]
  IC50: > 20000 nM
VEGF DNA binding to HuR; [6]
  IC50: > 20000 nM
VEGF DNA binding to HuR; [7]
  IC50: > 20000 nM
VEGF DNA binding to HuR; [8]
  IC50: > 20000 nM
[2]
  IC50: > 20000 nM
